Values after ≈ are worked out from the molar mass of the structure shown. Each block holds one compound with its values, some of them ahead of it.
Experiments:
Assay type in all cases: functional
Candida albicans [1] = test: Antifungal activity against Candida albicans SC5314 assessed as reduction in fungal growth incubated for 24 hrs by CLSI based microdilution analysis
Candida albicans [2] = test: Antifungal activity against fluconazole-resistant Candida albicans 901 assessed as inhibition of fungal growth measured for 24 hrs by CLSI based microdilution analysis
Nakaseomyces glabratus = test: Antifungal activity against Candida glabrata ATCC 15126 assessed as reduction in fungal growth incubated for 24 hrs by CLSI based microdilution analysis
Candida parapsilosis = test: Antifungal activity against Candida parapsilosis ATCC 22019 assessed as reduction in fungal growth incubated for 24 hrs by CLSI based microdilution analysis; settings: Lodderomyces parapsilosis
Candida tropicalis = test: Antifungal activity against Candida tropicalis ATCC 750 assessed as reduction in fungal growth incubated for 24 hrs by CLSI based microdilution analysis
Candida albicans [3] = test: Antifungal activity against fluconazole-resistant Candida albicans 102 assessed as inhibition of fungal growth measured for 24 hrs by CLSI based microdilution analysis
Candida albicans [4] = test: Antifungal activity against fluconazole-resistant Candida albicans 13 assessed as inhibition of fungal growth measured for 24 hrs by CLSI based microdilution analysis
[5] = system: Meyerozyma guilliermondii; test: Antifungal activity against Meyerozyma guilliermondii ATCC 6260 assessed as reduction in fungal growth incubated for 24 hrs by CLSI based microdilution analysis
Aspergillus fumigatus = test: Antifungal activity against Aspergillus fumigatus CGMCC3 7795 assessed as reduction in fungal growth incubated for 48 hrs by CLSI based microdilution analysis
Candida albicans [6] = test: Antifungal activity against fluconazole-resistant Candida albicans 112869 assessed as inhibition of fungal growth measured for 24 hrs by CLSI based microdilution analysis
Candida albicans [7] = test: Antifungal activity against fluconazole-resistant Candida albicans 15 assessed as inhibition of fungal growth measured for 24 hrs by CLSI based microdilution analysis
Cryptococcus neoformans = test: Antifungal activity against Cryptococcus neoformans CGMCC3 1563 assessed as reduction in fungal growth incubated for 72 hrs by CLSI based microdilution analysis
Candida albicans [8] = test: Antifungal activity against fluconazole-resistant Candida albicans 24D assessed as inhibition of fungal growth measured for 24 hrs by CLSI based microdilution analysis

MIC80 (Candida albicans [1]): 0.25 µg/mL (≈ 0.42 µM)
SMILES: OC(CN1CCN(CCn2c3ccccc3c3cc(Br)ccc32)CC1)(Cn1cncn1)c1ccc(F)cc1F (stereo unspecified)

MIC80 (Candida albicans [1]): 0.25 µg/mL (≈ 0.417 µM)
SMILES: OC(CN1CCN(CCCCCCCCCn2ccc3cc(Cl)ccc32)CC1)(Cn1cncn1)c1ccc(F)cc1F (stereo unspecified)

MIC80 (Candida albicans [1]): 0.5 µg/mL (≈ 0.841 µM)
SMILES: COc1ccc2c(ccn2CCCCCCCCCN2CCN(CC(O)(Cn3cncn3)c3ccc(F)cc3F)CC2)c1 (stereo unspecified)

MIC80 (Candida albicans [1]): 0.25 µg/mL (≈ 0.452 µM)
SMILES: COc1ccc2c(ccn2CCCCCCN2CCN(CC(O)(Cn3cncn3)c3ccc(F)cc3F)CC2)c1 (stereo unspecified)

MIC80 (Candida albicans [1]): 0.125 µg/mL (≈ 0.245 µM)
SMILES: Cc1ccc2oc(=O)c(C(=O)N3CCN(CC(O)(Cn4cncn4)c4ccc(F)cc4F)CC3)cc2c1 (stereo unspecified)

MIC80 (Candida albicans [1]): 0.125 µg/mL (≈ 0.262 µM)
SMILES: Cc1ccc(S(=O)(=O)N2CCN(CC(O)(Cn3cncn3)c3ccc(F)cc3F)CC2)cc1 (stereo unspecified)

MIC80 (Candida albicans [1]): 50 µg/mL (≈ 107 µM)
SMILES: O[C@](CN1CCN(CCn2ncc3ccccc32)CC1)(Cn1cncn1)c1ccc(F)cc1F

MIC80 (Candida albicans [1]): 0.5 µg/mL (≈ 0.815 µM)
SMILES: OC(CN1CCN(CCCCCCCCCCn2ccc3cc(Cl)ccc32)CC1)(Cn1cncn1)c1ccc(F)cc1F (stereo unspecified)

The next lines start with the compound.

SMILES: OC(CN1CCN(CCCCCCCCCn2ccc3cc(Br)ccc32)CC1)(Cn1cncn1)c1ccc(F)cc1F (stereo unspecified)
MIC80 (Candida albicans [1]): 0.25 µg/mL (≈ 0.388 µM)

SMILES: OC(CN1CCN(CCn2c3ccccc3c3cc(Cl)ccc32)CC1)(Cn1cncn1)c1ccc(F)cc1F (stereo unspecified)
MIC80 (Candida albicans [1]): 0.25 µg/mL (≈ 0.454 µM)

SMILES: CCC(C)n1ncn(-c2ccc(N3CCN(c4ccc(OCC5COC(Cn6cncn6)(c6ccc(Cl)cc6Cl)O5)cc4)CC3)cc2)c1=O (stereo unspecified) [ITRACONAZOLE]
MIC80 (Candida albicans [2]): > 100 µg/mL | MIC80 (Nakaseomyces glabratus): 0.625 µg/mL (≈ 0.886 µM) | MIC80 (Candida parapsilosis): 0.25 µg/mL (≈ 0.354 µM) | MIC80 (Candida tropicalis): 0.625 µg/mL (≈ 0.886 µM) | MIC80 (Candida albicans [3]): > 100 µg/mL | MIC80 (Candida albicans [4]): > 100 µg/mL | MIC80 [5]: 0.25 µg/mL (≈ 0.354 µM) | MIC80 (Aspergillus fumigatus): 0.312 µg/mL (≈ 0.442 µM) | MIC80 (Candida albicans [1]): 0.062 µg/mL (≈ 0.0879 µM) | MIC80 (Candida albicans [6]): > 100 µg/mL | MIC80 (Candida albicans [7]): > 100 µg/mL | MIC80 (Cryptococcus neoformans): 0.062 µg/mL (≈ 0.0879 µM) | MIC80 (Candida albicans [8]): > 100 µg/mL

SMILES: OC(CN1CCN(CCn2ncc3ccccc32)CC1)(Cn1cncn1)c1ccc(F)cc1F (stereo unspecified)
MIC80 (Candida albicans [1]): 0.062 µg/mL (≈ 0.133 µM)

SMILES: O=C1C(=O)N(CCN2CCN(CC(O)(Cn3cncn3)c3ccc(F)cc3F)CC2)c2ccc(Br)cc21 (stereo unspecified)
MIC80 (Candida albicans [1]): 0.062 µg/mL (≈ 0.108 µM)

SMILES: OC(CN1CCN(CCn2c3ccccc3c3ccccc32)CC1)(Cn1cncn1)c1ccc(F)cc1F (stereo unspecified)
MIC80 (Candida albicans [1]): 0.125 µg/mL (≈ 0.242 µM)

SMILES: COc1ccc2c(ccn2CCCN2CCN(CC(O)(Cn3cncn3)c3ccc(F)cc3F)CC2)c1 (stereo unspecified)
MIC80 (Candida albicans [2]): 5 µg/mL (≈ 9.79 µM) | MIC80 (Nakaseomyces glabratus): 0.312 µg/mL (≈ 0.611 µM) | MIC80 (Candida parapsilosis): 0.062 µg/mL (≈ 0.121 µM) | MIC80 (Candida tropicalis): 0.625 µg/mL (≈ 1.22 µM) | MIC80 (Candida albicans [3]): 0.062 µg/mL (≈ 0.121 µM) | MIC80 (Candida albicans [4]): 0.062 µg/mL (≈ 0.121 µM) | MIC80 [5]: 0.125 µg/mL (≈ 0.245 µM) | MIC80 (Aspergillus fumigatus): 5 µg/mL (≈ 9.79 µM) | MIC80 (Candida albicans [1]): 0.062 µg/mL (≈ 0.121 µM) | MIC80 (Candida albicans [6]): 0.25 µg/mL (≈ 0.49 µM) | MIC80 (Candida albicans [7]): 0.625 µg/mL (≈ 1.22 µM) | MIC80 (Cryptococcus neoformans): 0.125 µg/mL (≈ 0.245 µM) | MIC80 (Candida albicans [8]): 0.125 µg/mL (≈ 0.245 µM)

SMILES: OC(CN1CCN(CCn2ccc3cc(Cl)cnc32)CC1)(Cn1cncn1)c1ccc(F)cc1F (stereo unspecified)
MIC80 (Candida albicans [1]): 0.062 µg/mL (≈ 0.124 µM)

SMILES: COc1ccc2c(ccn2CCN2CCN(CC(O)(Cn3cncn3)c3ccc(F)cc3F)CC2)c1 (stereo unspecified)
MIC80 (Candida albicans [1]): 0.031 µg/mL (≈ 0.0624 µM)

SMILES: O=C(c1ccc2c(c1)OCCO2)N1CCN(CC(O)(Cn2cncn2)c2ccc(F)cc2F)CC1 (stereo unspecified)
MIC80 (Candida albicans [1]): 0.25 µg/mL (≈ 0.515 µM)

SMILES: OC(CN1CCN(CCOc2ccc3c(c2)OCO3)CC1)(Cn1cncn1)c1ccc(F)cc1F (stereo unspecified)
MIC80 (Candida albicans [1]): 0.125 µg/mL (≈ 0.256 µM)

SMILES: OC(CN1CCN(CCn2ncc3cc(Br)ccc32)CC1)(Cn1cncn1)c1ccc(F)cc1F (stereo unspecified)
MIC80 (Candida albicans [1]): 0.062 µg/mL (≈ 0.113 µM)

SMILES: OC(CN1CCN(CCCn2ccc3ccc(Br)cc32)CC1)(Cn1cncn1)c1ccc(F)cc1F (stereo unspecified)
MIC80 (Candida albicans [2]): 2.5 µg/mL (≈ 4.47 µM) | MIC80 (Nakaseomyces glabratus): 0.312 µg/mL (≈ 0.558 µM) | MIC80 (Candida parapsilosis): 0.062 µg/mL (≈ 0.111 µM) | MIC80 (Candida tropicalis): 0.312 µg/mL (≈ 0.558 µM) | MIC80 (Candida albicans [3]): 0.125 µg/mL (≈ 0.223 µM) | MIC80 (Candida albicans [4]): 0.031 µg/mL (≈ 0.0554 µM) | MIC80 [5]: 0.031 µg/mL (≈ 0.0554 µM) | MIC80 (Aspergillus fumigatus): 1.25 µg/mL (≈ 2.23 µM) | MIC80 (Candida albicans [1]): 0.062 µg/mL (≈ 0.111 µM) | MIC80 (Candida albicans [6]): 0.5 µg/mL (≈ 0.894 µM) | MIC80 (Candida albicans [7]): 2.5 µg/mL (≈ 4.47 µM) | MIC80 (Cryptococcus neoformans): 0.031 µg/mL (≈ 0.0554 µM) | MIC80 (Candida albicans [8]): 0.125 µg/mL (≈ 0.223 µM)

SMILES: O=C(c1cccc2ccccc12)N1CCN(CC(O)(Cn2cncn2)c2ccc(F)cc2F)CC1 (stereo unspecified)
MIC80 (Candida albicans [1]): 0.25 µg/mL (≈ 0.524 µM)

SMILES: COc1ccc2c(cnn2CCN2CCN(CC(O)(Cn3cncn3)c3ccc(F)cc3F)CC2)c1 (stereo unspecified)
MIC80 (Candida albicans [1]): 0.062 µg/mL (≈ 0.125 µM)

SMILES: O=[N+]([O-])c1ccc2c(ccn2CCCN2CCN(CC(O)(Cn3cncn3)c3ccc(F)cc3F)CC2)c1 (stereo unspecified)
MIC80 (Candida albicans [2]): 1.25 µg/mL (≈ 2.38 µM) | MIC80 (Nakaseomyces glabratus): 0.625 µg/mL (≈ 1.19 µM) | MIC80 (Candida parapsilosis): 0.062 µg/mL (≈ 0.118 µM) | MIC80 (Candida tropicalis): 0.312 µg/mL (≈ 0.594 µM) | MIC80 (Candida albicans [3]): 0.031 µg/mL (≈ 0.059 µM) | MIC80 (Candida albicans [4]): 0.062 µg/mL (≈ 0.118 µM) | MIC80 [5]: 0.125 µg/mL (≈ 0.238 µM) | MIC80 (Aspergillus fumigatus): 1.25 µg/mL (≈ 2.38 µM) | MIC80 (Candida albicans [1]): 0.031 µg/mL (≈ 0.059 µM) | MIC80 (Candida albicans [6]): 0.062 µg/mL (≈ 0.118 µM) | MIC80 (Candida albicans [7]): 0.625 µg/mL (≈ 1.19 µM) | MIC80 (Cryptococcus neoformans): 0.031 µg/mL (≈ 0.059 µM) | MIC80 (Candida albicans [8]): 0.031 µg/mL (≈ 0.059 µM)

SMILES: O=c1ccc2ccc(OCCN3CCN(CC(O)(Cn4cncn4)c4ccc(F)cc4F)CC3)cc2o1 (stereo unspecified)
MIC80 (Candida albicans [1]): 0.25 µg/mL (≈ 0.489 µM)

SMILES: COc1ccc2c(ccn2CCCCCCCCCCN2CCN(CC(O)(Cn3cncn3)c3ccc(F)cc3F)CC2)c1 (stereo unspecified)
MIC80 (Candida albicans [1]): 0.5 µg/mL (≈ 0.821 µM)

SMILES: OC(CN1CCN(CCCCCCn2ccc3cc(Br)ccc32)CC1)(Cn1cncn1)c1ccc(F)cc1F (stereo unspecified)
MIC80 (Candida albicans [1]): 0.125 µg/mL (≈ 0.208 µM)

SMILES: O=C(c1cc2cc(Br)ccc2oc1=O)N1CCN(CC(O)(Cn2cncn2)c2ccc(F)cc2F)CC1 (stereo unspecified)
MIC80 (Candida albicans [1]): 0.125 µg/mL (≈ 0.218 µM)
